# B1: carbonyl reductase: NADH-dependent carbonyl reductase purified from Kluyveromyces aestuarii IFO 10597; amino acid sequence SEQ ID NO: 2 (protein, listed as Kluyveromyces aestuarii)
# chain: MTFQHFLRGGLEDKTVPQEPPKEQYPDGVNYLSLFSQKGKLTVITGGAGAIGGALCEGFASCGSDVVILDYKYSPELSSVLESRYGVRSKSYQVDITSSEDVKLVVAKILEDFPDRDINTFVANAGIAWTNGSILNENATPDVWKRVMDVNVQGTYHCAKYVAEVFKQQGHGNLILTASMSSYISNVPNYQTCYNASKAAVRHMAKGFAVEFAHLTNPAGKIRCNSVSPGYTDTALSAFVPVEQRAQWWGLTPMGREALPQELVGAYLYLASDAASFTNGCDIQVDGGYTCV
# Assays:
# carbonyl reductase [1] = experiment: Substrate specificity: reductase activity with various ketones and aldehydes in the presence of a coenzyme; type: biochemical, Kluyveromyces aestuarii; design: concentration or dose not given beside the values; details: reduction reaction, ethyl 4-chloroacetoacetate with NADH taken as 100
# Description: (§1) A decrease of absorbance at 340 nm, following a decrease of NADH, is measured during the reaction at 30 in a reaction mixture containing 50 mM potassium phosphate buffer (pH 6.5), 0.2 mM NADH, 20 mM ethyl 4-chloroacetoacetate, and the enzyme. One unit of the enzyme of the present invention is defined as the amount required to decrease […] of NADH in 1 min. A protein is quantitated by the dye-binding method using a Protein Assay Kit (BioRad).
# (§2) The reductase activity of the enzyme obtained in Example 1 was measured by reacting the enzyme with various ketones and aldehydes in the presence of a coenzyme. The results are shown in Table 2 as the activity relative to that of ethyl 4-chloroacetoacetate in the presence of NADH that is taken as 100.
# carbonyl reductase [2] = experiment: Influence of inhibitors on the carbonyl reductase (residual reductase activity); type: biochemical, Kluyveromyces aestuarii; details: for Residual activity: 30, 10 min, activity without any reagent taken as 100
# Description: as §1
# The enzyme obtained in Example 1 was incubated at 30 for 10 min in the presence of various reagents, and its reductase activity to […] was measured. The results are shown in Table 3 as the residual activity to that obtained without any reagent that is taken as 100.
# carbonyl reductase [3] = experiment: Substrate specificity: NAD+-dependent dehydrogenase (oxidation) activity; type: biochemical, Kluyveromyces aestuarii; design: Relative activity (%): concentration or dose not given beside the values; details: for Relative activity (%): oxidation reaction, coenzyme NAD+, reduction of ethyl 4-chloroacetoacetate with NADH taken as 100; for NAD+-dependent dehydrogenase activity (in words): substrate with NAD+
# Description: The enzyme contacts the substrate, 4-halo-3-hydroxybutyrate ester, in the presence of NAD^+, and the change (per unit time) of the absorbance at 340 nm, which is accompanied with an increase or decrease of NADH, is measured.
# as §2
# [4] = type: physicochemical, Kluyveromyces aestuarii
# Description: The enzyme obtained in Example 1 was incubated at pH 8.0 for 10 min at 30, 37, 45, 50, and 55; the reductase activity of each incubation mixture to ethyl 4-chloroacetoacetate was then measured. The results are shown in FIG. 5 as the residual activity to the activity of the untreated enzyme that is taken as 100.
# [5] = 4-chloroacetoacetate ester-reducing activity of the purified enzyme; type: biochemical, Kluyveromyces aestuarii; details: 20 mM ethyl 4-chloroacetoacetate, 0.2 mM NADH, pH 6.5; after Superdex 200
# Description: as §1
# Kluyveromyces aestuarii IFO 10597 was cultured in 20 L of YM medium containing 24 g/L glucose, 3 g/L yeast extract, 3 g/L malt extract, and 5 g/L peptone (pH 6.0). The cultured cells were harvested by centrifugation. […]
# The activity of the carbonyl reductase was detected in three fractions, a passed-through fraction and two gradient-eluted fractions. […]
# The concentrated enzyme solution was adjusted to 20% saturation with ammonium sulfate and was applied to a butyl-Toyopearl 650M column (1.6 cm×5 cm) equilibrated with the standard buffer containing 20% saturation ammonium sulfate. […] The peak of the activity of the carbonyl reductase was detected in two eluted fractions. […]
# The active fractions obtained by gel filtration were concentrated and analyzed by polyacrylamide gel electrophoresis (PAGE). The enzyme was detected as a substantially single band (FIG. 1). […]
molecule,measurement,setting,value
COC(=O)CC(=O)CCl [methyl 4-chloroacetoacetate],Relative activity (%),carbonyl reductase [1]; coenzyme NADH,13.1%
O=C(O)c1cc[c]([Hg][Cl])cc1 [p-chloromercuribenzoic acid],Inhibition of the carbonyl reductase (in words),carbonyl reductase [2],significantly inhibited
same,Residual activity,carbonyl reductase [2]; inhibitor 0.05 mM,0
CC(C)O [Isopropanol],Relative activity (%),carbonyl reductase [3],0%
same,NAD+-dependent dehydrogenase activity (in words),carbonyl reductase [3],does not substantially dehydrogenate
O=Cc1cccnc1 [pyridin-3-aldehyde],Relative activity (%),carbonyl reductase [1]; coenzyme NADH,0%
CCC=O [Propionaldehyde],Relative activity (%),carbonyl reductase [1]; coenzyme NADH,2.5%
CC(=O)C=O [Methylglyoxal],Relative activity (%),carbonyl reductase [1]; coenzyme NADH,0%
"CC(=O)CC(C)=O [2,4-pentandione]",Relative activity (%),carbonyl reductase [1]; coenzyme NADH,0%
NC(=O)CI [iodoacetamide],Inhibition of the carbonyl reductase (in words),carbonyl reductase [2],weakly inhibited
same,Residual activity,carbonyl reductase [2]; inhibitor 1 mM,84.0
CCOC(=O)C[C@H](O)CCl [ethyl (S)-4-chloro-3-hydroxybutyrate],Relative activity (%),carbonyl reductase [3],0%
same,NAD+-dependent dehydrogenase activity (in words),carbonyl reductase [3],did not show any
CCOC(=O)CC(=O)CCl [ethyl 4-chloroacetoacetate],Relative activity (%),carbonyl reductase [1]; coenzyme NADH,100%
same,Relative activity (%),carbonyl reductase [1]; coenzyme NADPH,6.4%
CCOC(=O)C[C@H](C)O [ethyl (S)-3-hydroxybutyrate],Relative activity (%),carbonyl reductase [3],0%
COC(=O)CC(C)=O [methyl acetoacetate],Relative activity (%),carbonyl reductase [1]; coenzyme NADH,0%
CCOC(=O)C[C@@H](C)O [ethyl (R)-3-hydroxybutyrate],Relative activity (%),carbonyl reductase [3],1.9%
CCOC(=O)CC(C)=O [ethyl acetoacetate],Relative activity (%),carbonyl reductase [1]; coenzyme NADH,0%
CCOC(=O)C[C@@H](O)CCl [ethyl (R)-4-chloro-3-hydroxybutyrate],Relative activity (%),carbonyl reductase [3],0%
same,NAD+-dependent dehydrogenase activity (in words),carbonyl reductase [3],did not show any
CC(=O)c1ccccc1 [Acetophenone],Relative activity (%),carbonyl reductase [1]; coenzyme NADH,0%
CCC1(CC)C(=O)NC(=O)NC1=O [barbital],Inhibition of the carbonyl reductase (in words),carbonyl reductase [2],not and not inhibited
same,Residual activity,carbonyl reductase [2]; inhibitor 1 mM,101
O=c1c(O)c(-c2ccc(O)c(O)c2)oc2cc(O)cc(O)c12 [quercetin],Inhibition of the carbonyl reductase (in words),carbonyl reductase [2],not and not inhibited
same,Residual activity,carbonyl reductase [2]; inhibitor 0.1 mM,94.0
"CC(=O)C(C)=O [2,3-butandione]",Relative activity (%),carbonyl reductase [1]; coenzyme NADH,70.6%
"CCC(=O)C(C)=O [2,3-pentandione]",Relative activity (%),carbonyl reductase [1]; coenzyme NADH,8.2%
O=S(=O)(F)Cc1ccccc1 [Phenylmethanesulfonyl fluoride],Residual activity,carbonyl reductase [2]; inhibitor 1 mM,99.0
O=S(=O)([O-])[O-].[Cu+2] [copper sulfate],Inhibition of the carbonyl reductase (in words),carbonyl reductase [2],significantly inhibited
same,Residual activity,carbonyl reductase [2]; inhibitor 1 mM,19.0
B1,Thermostability (relatively stable up to),[4],up to 40
same,Residual activity after heat incubation,"[4]; pH 8.0, 10 min, up to 37, untreated enzyme taken as 100",≥ 75%
same,Specific activity of the purified enzyme,[5],about 28.6 U/mg
